The subject of data set [1] is Human iPSC-derived hepatocytes (iCell® Hepatocytes). Nature of the data set: Gene expression profiling of iCell Hepatocytes by microfluidic qRT-PCR. It counts as cell-based. Particulars: multiple doses, FIG. 1. Here is the method: Human iPSC-derived hepatocytes (iCell® Hepatocytes) were exposed to the compounds of formula I with the goal of identifying conditions that favor greater functionality that better models the adult organ. […] Gene expression changes were validated and confirmed in a secondary screen, and functional consequences were queried.
Fresh iCell® Hepatocytes (day 20-23) were plated and cultured according to iCell Hepatocytes Dissociation and Plating User's Guide at 60 k cells per well in 96 well BIO Collagen IV coated plates (BD Cat#354429) 4 Hours post plating Medium C was removed and replaced with a 1:50 Matrigel (Cat#354227) overlay in Medium D. We dosed the cells at 5 uM in Medium D and 1% DMSO 24 hours post plating. Day 3, media was removed and we dosed again at 5 uM. Day 4 we Harvested RNA.
Sample RNA was isolated using TaqMan® Gene Expression Cells-to-CT™ Kit (Life Technologies Cat#4387299) froze at −80 C at various time points post compound treatment. All samples were processed by microfluidic quantitative PCR using the Biomark Fluidigm 96.96 chips (BMK-M-96.96) and ABI Taqman probes. Normalization and model-based expression measurements were calculated using the Biogazelle qBASE and Genorm software. […] Expression values are calculated by the fold change over vehicle control. […]
(In general: In qPCR the cycle at which signal appears reflects the starting amount.)

The test system of another data set is HBV. Nature of the data set: Infection of iCell Hepatocytes with HBV. The format is cell-based, hepatitis B virus (HBV). Here is the method: Two hundred microliters of HBV-containing serum was applied onto a 10-50% Optiprep gradient in SW41 tubes. Samples were centrifuged at 100,000×g for 2 hr at 4 C. Five hundred microliters fractions were collected from the top; each fraction was analyzed for HBsAg (ELISA) and HBV DNA (TaqMan PCR). Fractions containing virus were stored at −80 C.
Fresh iCell® Hepatocytes (day 20-23) were plated and cultured according to iCell Hepatocytes Dissociation and Plating User's Guide at 60 k cells per well in 96 well BIO Collagen IV coated plates (BD Cat#354429) 4 Hours post plating Medium C was removed and replaced with a 1:50 Matrigel (Cat#354227) overlay in Medium D. Twenty four hours post plating, cells were treated with 1 uM of the compound of example 1 in Medium D containing 1% DMSO. Media containing fresh compound was replenished 2 days later. At day 4 post plating, cells were infected with HBV at MOI (multiplicity of infection) of 10. Briefly, purified virus was diluted in medium D containing the compound of example 1 and incubated with cells for 4-6 hr or overnight. After removal of virus inoculum, fresh media containing 1 uM of the compound of example 1 was added and cells were incubated for 14 days with a medium change every 2 days. Culture media were analyzed for secreted viral antigens (HBsAg, HBeAg) and HBV DNA.

A short description of data set [2]: Microarray analysis of iCell Hepatocytes treated with the compound of example 1. The format is cell-based, Human. Particulars: 2 HOUR. The source says:
iCell Hepatocytes treated with the compound of example 1 results in the up and down-regulation of a host of genes; including a kinetic effect on interferon-stimulated gene (ISGs) expression. See FIGS. 15-I and 15-II, 16-I and 16-II and 18 and Table 1.

For the molecule `O=C(NCc1cccc(F)c1)c1cccc2nc(-c3c(NC[C@@H](O)c4ccccc4)cc[nH]c3=O)[nH]c12` [Example 1, 2-[4-((S)-2-hydroxy-2-phenyl-ethylamino)-2-oxo-1,2-dihydro-pyridin-3-yl]-3H-benzoimidazole-4-carboxylic acid 3-fluoro-benzylamide], in data set [1], the “expression of genes spanning hepatocyte function” value is reported as “global increase of genes spanning hepatocyte function”. Besides, the “infection of the four major HBV genotypes” value in the data set with HBV (iCell hepatocytes treated with compound) is “support robust infection of all four major HBV genotypes”. The “infection with patient-derived vs cell culture-derived (HepG2.2.15) HBV” value with HBV (iCell hepatocytes treated with compound, FIG. 8) is listed as “support infection of patient-derived, but not cell culture-derived, HBV”. The “cell susceptibility to HBV infection” value with HBV (iCell hepatocytes, FIG. 3) was “cell susceptibility to HBV infection that occurred in a dose-dependent manner”. The “need for compound presence to maintain robust viral infection” value in the data set with HBV (pre-treated 6 d vs pre-treated and during infection (throughout)) was “Continuous presence of the compound of example 1 is required”. Further, in data set [2], the “ABCA9 Raw Est Fold Change” value is reported as −4.37 and the “PCP4 Raw Est Fold Change” value is on record as −2.44.

The values are drawn from US9181218B2, “Compounds for improved stem cell differentiation into hepatocytes” (Hoffmann-La Roche Inc., priority 2013, dated 2015).
